Experimental data published in US8822691B2, “Pesticidal carboxamides” (Bayer CropScience AG, priority 2009, dated 2014).
Read-outs that look alike come from different tables or passages of the source.

Key:
Assay type in all cases: in vivo
[1] = tested on: Spodoptera litura; assay: Test against tobacco cutworm (Spodoptera litura) larvae, leaf dip; settings: active compound concentration of 100 ppm, third instar larvae on sweet potato leaves, after 7 days; for pest or weed control at 100 ppm: foliar, 168 h, read-out: insecticidal activity
Method: (§1) Unless not mentioned otherwise, the test solutions were prepared as follows:
(§2) Containing as solvent: Dimethylformamide, 3 parts by weight; and as emulsifier: Polyoxyethylene alkyl phenyl ether, 1 part by weight
(§3) To prepare the test solution, 1 part by weight of an active compound is mixed with the above-mentioned amount of solvent containing the above-mentioned amount of emulsifier, and the mixture is diluted with water to the desired concentration.
Leaves of sweet potato were immersed in the test solution at the appropriate concentration, and the leaves were dried in air. The leaves were then placed in a petri dish having a diameter of 9 cm, and ten Spodoptera litura at third instar larvae were released therein. The petri dishes were placed in a temperature-controlled chamber at 25° C. After 2 days and 4 days more sweet potato leaves were added. After 7 days, the number of dead larvae was counted to calculate the insecticidal activity. An insecticidal activity of 100% means that all larvae were killed, whereas an insecticidal activity of 0% means that no larva was killed. In the current test, the results of two petri dishes for each treatment were averaged.

[2] = tested on: Aulacophora femoralis; assay: Test against cucurbit leaf beetle (Aulacophora femoralis), leaf dip; settings: for pest or weed control at 500 ppm: Aulacophora, foliar, 168 h, read-out: insecticidal activity
Method: as §1, §2, §3
Leaves of cucumber were immersed in the test solution at the appropriate concentration, and the leaves were dried in air. The leaves were then put in a plastic cup containing sterilized black soil and five Aulacophora femoralis at second instar larvae were released in the cup. The cups were placed in a temperature-controlled chamber at 25° C. After 7 days, the number of dead larvae was counted, and thus the insecticidal activity was calculated. An insecticidal activity of 100% means that all larvae were killed, whereas an insecticidal activity of 0% means that no larva was killed.

[3] = tested on: Tetranychus urticae; assay: Test against two-spotted spider mite (Tetranychus urticae), spray; settings: for acaricidal activity: active compound concentration of 500 ppm, adult mites on kidney bean, after 7 days
Method: as §1, §2, §3
50 to 100 adult mites of Tetranychus urticae were inoculated to leaves of kidney bean at two-leaf stage planted in a pot of 6 cm in diameter. After one day, test solution at the appropriate concentration was sprayed thereon in a sufficient amount using a spray gun. After the spraying, the plant pot was placed inside a greenhouse, and after 7 days, the acaricidal activity was calculated. An acaricidal activity of 100% means that all mites were killed, whereas an acaricidal activity of 0% means that no mite was killed.

[4] = active compound concentration of 500 ppm, second instar larvae on cucumber leaves, after 7 days

Row | Structure (SMILES) | insecticidal activity [1] | insecticidal activity [2, 4] | other results
1 | Cc1cc(C(F)(C(F)(F)F)C(F)(F)F)cc(C)c1NC(=O)c1ccc2nccc(Br)c2c1 [2-13] | 100% | 100% | –
2 | Cc1cc(C(F)(C(F)(F)F)C(F)(F)F)cc(C)c1NC(=O)c1ccc2nc(Br)ccc2c1 [2-18] | – | 100% | –
3 | Cc1cc(C(F)(C(F)(F)F)C(F)(F)F)cc(C(C)C)c1NC(=O)c1ccc2c(ccc[n+]2[O-])c1 [2-36] | – | 100% | –
4 | Cc1cc(C(F)(C(F)(F)F)C(F)(F)F)cc(C(C)C)c1NC(=O)c1ccc2nc(C#N)ccc2c1 [2-37] | 100% | 100% | –
5 | CC(C)c1cc(C(F)(C(F)(F)F)C(F)(F)F)cc(C(C)C)c1NC(=O)c1ccc2c(ccc[n+]2[O-])c1 [2-57] | – | 100% | –
6 | O=C(Nc1c(Cl)cc(C(F)(C(F)(F)F)C(F)(F)F)cc1Cl)c1ccc2ncccc2c1 [2-59] | – | 100% | –
7 | N#Cc1ccc2cc(C(=O)Nc3c(Cl)cc(C(F)(C(F)(F)F)C(F)(F)F)cc3Cl)ccc2n1 [2-61] | 100% | 100% | –
8 | O=C(Nc1c(I)cc(C(F)(C(F)(F)F)C(F)(F)F)cc1I)c1ccc2c(ccc[n+]2[O-])c1 [2-68] | 100% | 100% | –
9 | CCOC(c1cc(C)c(NC(=O)c2ccc3ncccc3c2)c(CC)c1)(C(F)(F)F)C(F)(F)F [2-72] | – | – | acaricidal activity [3]: 100%
10 | CCOC(c1cc(C)c(NC(=O)c2ccc3nc(C#N)ccc3c2)c(CC)c1)(C(F)(F)F)C(F)(F)F [2-74] | 100% | 100% | –
11 | CCc1cc(C(Oc2ccc(Cl)cc2)(C(F)(F)F)C(F)(F)F)cc(C)c1NC(=O)c1ccc2ncccc2c1 [2-78] | 100% | 100% | –
12 | Cc1cc(C(F)(C(F)(F)F)C(F)(F)C(F)(F)F)cc(C)c1NC(=O)c1ccc2ncccc2c1 (stereo not drawn) [2-85] | – | – | acaricidal activity [3]: 100%
13 | CCc1cc(C(F)(C(F)(F)F)C(F)(F)C(F)(F)F)cc(C)c1NC(=O)c1ccc2c(ccc[n+]2[O-])c1 (stereo not drawn) [2-89] | – | 100% | –
14 | CCCc1cc(C(F)(C(F)(F)F)C(F)(F)C(F)(F)F)cc(I)c1NC(=O)c1ccc2ncccc2c1 (stereo not drawn) [2-102] | 100% | – | –
15 | CCCc1cc(C(F)(C(F)(F)F)C(F)(F)C(F)(F)F)cc(I)c1NC(=O)c1ccc2c(ccc[n+]2[O-])c1 (stereo not drawn) [2-103] | 100% | – | –
16 | CCCc1cc(C(F)(C(F)(F)F)C(F)(F)C(F)(F)F)cc(I)c1NC(=O)c1ccc2nc(C#N)ccc2c1 (stereo not drawn) [2-104] | 100% | 100% | –
17 | O=C(Nc1c(I)cc(C(F)(C(F)(F)F)C(F)(F)C(F)(F)F)cc1I)c1ccc2ncccc2c1 (stereo not drawn) [2-111] | 100% | – | –
18 | O=C(Nc1c(I)cc(C(F)(C(F)(F)F)C(F)(F)C(F)(F)F)cc1I)c1ccc2c(ccc[n+]2[O-])c1 (stereo not drawn) [2-112] | – | 100% | –
19 | N#Cc1ccc2cc(C(=O)Nc3c(I)cc(C(F)(C(F)(F)F)C(F)(F)C(F)(F)F)cc3I)ccc2n1 (stereo not drawn) [2-113] | 100% | 100% | –
20 | CCc1cc(C2(F)C(F)(F)C(F)(F)C(F)(F)C(F)(F)C2(F)F)cc(C)c1NC(=O)c1ccc2ncccc2c1 [2-128] | 100% | – | –
21 | CCc1cc(C2(F)C(F)(F)C(F)(F)C(F)(F)C(F)(F)C2(F)F)cc(C)c1NC(=O)c1ccc2c(ccc[n+]2[O-])c1 [2-129] | 100% | – | –
22 | N#Cc1ccc2cc(C(=O)Nc3c(Br)cc(OC(F)(F)F)cc3Br)ccc2n1 [2-139] | – | 100% | –
23 | N#Cc1ccc2cc(C(=O)Nc3c(Br)cc(SC(F)(F)F)cc3Br)ccc2n1 [2-140] | 100% | 100% | –

Row | Structure (SMILES) | insecticidal activity [1] | insecticidal activity [2, 4] | other results
24 | N#Cc1ccc2cc(C(=O)Nc3c(I)cc(C(F)(C(F)(F)F)C(F)(F)F)cc3SC(F)(F)F)ccc2n1 [2-161] | 100% | – | –
25 | CCCc1cc(C(F)(C(F)(F)F)C(F)(F)C(F)(F)F)cc(Br)c1NC(=O)c1ccc2ncccc2c1 (stereo not drawn) [2-162] | 100% | 100% | –
26 | CCCc1cc(C(F)(C(F)(F)F)C(F)(F)C(F)(F)F)cc(Br)c1NC(=O)c1ccc2nc(C#N)ccc2c1 (stereo not drawn) [2-164] | 100% | 100% | –
27 | CC(C)c1cc(C(F)(C(F)(F)F)C(F)(F)C(F)(F)F)cc(I)c1NC(=O)c1ccc2nc(C#N)ccc2c1 (stereo not drawn) [2-167] | 100% | 100% | –
28 | O=C(Nc1c(Br)cc(C(F)(C(F)(F)F)C(F)(F)C(F)(F)F)cc1SC(F)(F)F)c1ccc2c(ccc[n+]2[O-])c1 (stereo not drawn) [2-184] | – | – | acaricidal activity [3]: 100%
29 | N#Cc1ccc2cc(C(=O)Nc3c(Br)cc(C(F)(C(F)(F)F)C(F)(F)C(F)(F)F)cc3SC(F)(F)F)ccc2n1 (stereo not drawn) [2-185] | 100% | 100% | –
30 | O=C(Nc1c(I)cc(C(F)(C(F)(F)F)C(F)(F)C(F)(F)F)cc1SC(F)(F)F)c1ccc2ncccc2c1 (stereo not drawn) [2-186] | 100% | – | –
31 | O=C(Nc1c(I)cc(C(F)(C(F)(F)F)C(F)(F)C(F)(F)F)cc1SC(F)(F)F)c1ccc2c(ccc[n+]2[O-])c1 (stereo not drawn) [2-187] | – | – | acaricidal activity [3]: 100%
32 | N#Cc1ccc2cc(C(=O)Nc3c(I)cc(C(F)(C(F)(F)F)C(F)(F)C(F)(F)F)cc3SC(F)(F)F)ccc2n1 (stereo not drawn) [2-188] | 100% | 100% | –
33 | Cc1cc(C(F)(C(F)(F)F)C(F)(F)Br)cc(C)c1NC(=O)c1ccc2ncccc2c1 (stereo not drawn) [2-189] | – | – | acaricidal activity [3]: 100%
34 | CCc1cc(C(F)(C(F)(F)F)C(F)(F)Br)cc(C)c1NC(=O)c1ccc2c(ccc[n+]2[O-])c1 (stereo not drawn) [2-193] | – | 100% | –
35 | O=C(Nc1c(Br)cc(C(F)(C(F)(F)F)C(F)(F)Br)cc1Br)c1ccc2ncccc2c1 (stereo not drawn) [2-195] | 100% | 100% | –
36 | O=C(Nc1c(I)cc(C(F)(C(F)(F)F)C(F)(F)Br)cc1I)c1ccc2ncccc2c1 (stereo not drawn) [2-198] | 100% | – | –
37 | N#Cc1ccc2cc(C(=O)Nc3c(I)cc(C(F)(C(F)(F)F)C(F)(F)Br)cc3I)ccc2n1 (stereo not drawn) [2-200] | 100% | 100% | –
38 | N#Cc1ccc2cc(C(=O)Nc3c(Br)cc(C(F)(C(F)(F)F)C(F)(F)C(F)(F)F)cc3Br)ccc2[n+]1[O-] (stereo not drawn) [2-270] | 100% | – | –
39 | CCc1cc(C(F)(C(F)(F)F)C(F)(F)C(F)(F)F)cc(C)c1NC(=O)c1ccc(N=c2ssnc2Cl)c(Br)c1 (stereo not drawn) [5-4] | 100% | – | –
40 | CCc1cc(C(F)(C(F)(F)F)C(F)(F)F)cc(C)c1NC(=O)c1ccc2cc(Br)ccc2c1 [Compound No. 1-3, 6-bromo-N-[2-ethyl-4-(1,1,1,2,3,3,3-heptafluoropropan-2-yl-2-yl)-6-methylphenyl]-2-naphthamide] | – | – | pest or weed control at 500 ppm ([3]; Tetranychus urticae, in Phaseolus vulgaris, 168 h, read-out: acaricidal activity): 100%
41 | CCc1cc(C(F)(C(F)(F)F)C(F)(F)F)cc(C)c1NC(=O)c1ccc2cc(C#N)ccc2c1 [Compound No. 1-4, 6-cyano-N-[2-ethyl-4-(1,1,1,2,3,3,3-heptafluoropropan-2-yl)-6-methylphenyl]-2-naphthamide] | – | – | pest or weed control at 100 ppm [1]: 100%
42 | Cc1cc(C(F)(C(F)(F)F)C(F)(F)F)cc(C)c1NC(=O)c1ccc2nc(Cl)ccc2c1 [Compound No. 2-17, 2-chloro-N-[4-(1,1,1,2,3,3,3-heptafluoropropan-2-yl)-2,6-dimethylphenyl]quinoline-6-carboxamide] | – | – | pest or weed control at 100 ppm [1]: 100%; pest or weed control at 500 ppm [2, 4]: 100%
43 | Cc1cc(C(F)(C(F)(F)F)C(F)(F)F)cc(C)c1NC(=O)c1ccc2c(ccc(C#N)[n+]2[O-])c1 [Compound No. 2-21] | 100% | 100% | –
44 | O=C(Nc1c(Br)cc(C(F)(C(F)(F)F)C(F)(F)F)cc1OC(F)F)c1ccc2ncccc2c1 [Compound No. 2-152, N-[2-bromo-(1,1,1,2,3,3,3-heptafluoropropan-2-yl)-6-(difluoromethoxy)phenyl]quinoline-6-carboxamide] | – | – | pest or weed control at 100 ppm [1]: 100%; pest or weed control at 500 ppm ([2]; in Cucumis sativus): 100%
45 | O=C(Nc1c(I)cc(C(F)(C(F)(F)F)C(F)(F)C(F)(F)F)cc1OC(F)F)c1ccc2c(ccc[n+]2[O-])c1 (stereo not drawn) [Compound No. 2-175, N-[2-(difluoromethoxy)-6-iodo-4-(1,1,1,2,3,3,4,4,4-nonafluorobutan-2-yl)phenyl]quinoline-6-carboxamide N-oxide] | – | – | pest or weed control at 100 ppm [1]: 100%; pest or weed control at 500 ppm [2, 4]: 100%
46 | O=C(Nc1c(Cl)cc(C(F)(C(F)(F)F)C(F)(F)F)cc1OC(F)F)c1ccc2ncccc2c1 [Compound No. 2-229, N-[2-chloro-(1,1,1,2,3,3,3-heptafluoropropan-2-yl)-6-(difluoromethoxy)phenyl]quinoline-6-carboxamide] | – | – | pest or weed control at 500 ppm [2, 4]: 100%
